In patent US20080312277A1, “Gpr41 and Modulators Thereof for the Treatment of Insulin-Related Disorders” (priority 2004, published 2008):

Legend:
[1] = test system: male C57b1/6 mice; assay: Oral glucose tolerance test (oGTT); type: in vivo; conditions: p.o. 30 min before oral dextrose 3 g/kg, FIG. 8
Protocol: For the oGTT, male C57b1/6 mice were fasted for about 18 hours and randomly grouped to receive the compounds indicated in FIG. 8 at the indicated doses, or vehicle (PET which contains 80% PEG, 10% Tween80, and 10% Ethanol). The indicated compound(s) were delivered orally via a gavage needle (p.o. volume at 100 μl). Thirty minutes after administration of the compound(s) or vehicle, mice were administered orally with dextrose at 3 g/kg dose. Levels of blood glucose were determined at several time points using Glucometer Elite XL (Bayer).

[2] = molecular target: T1, GPR41 (Homo sapiens, UniProt O14843); conditions: Brown et al., J. Biol. Chem. 278:11312-11319 (2003); cited from earlier work
T1 sequence (O14843 1-346): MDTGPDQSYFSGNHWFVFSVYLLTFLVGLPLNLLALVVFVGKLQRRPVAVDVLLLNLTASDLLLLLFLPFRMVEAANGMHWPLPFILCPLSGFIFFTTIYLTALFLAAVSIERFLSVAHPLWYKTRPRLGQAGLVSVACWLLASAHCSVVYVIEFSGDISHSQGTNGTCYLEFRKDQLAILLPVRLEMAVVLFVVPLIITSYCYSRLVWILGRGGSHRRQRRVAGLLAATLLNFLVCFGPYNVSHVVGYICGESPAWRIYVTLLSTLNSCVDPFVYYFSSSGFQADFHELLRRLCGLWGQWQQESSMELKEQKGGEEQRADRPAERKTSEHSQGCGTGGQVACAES

For `CC(C)c1noc(C2CCN(c3ncnc(Nc4ccc(S(C)(=O)=O)cc4F)c3[N+](=O)[O-])CC2)n1` [Compound B111, (2-Fluoro-4-methanesulfonyl-phenyl)-{6-[4-(3-isopropyl-[1,2,4]oxadiazol-5-yl)-piperidin-1-yl]-5-nitro-pyrimidin-4-yl}-amine], the “glycemic effect in the oGTT” value ([1]; used alone) was “glycemic lowering effect”.
For `CCC(=O)O` [propionate], the “activation of GPR41” value [2] is given as “activated”.
In the case of `CC1=C(C(=O)Nc2ccccc2C)C(c2ccoc2)C2=C(CCCC2=O)N1` (stereo not drawn) [Compound 4, 4-Furan-3-yl-2-methyl-5-oxo-1,4,5,6,7,8-hexahydro-quinoline-3-carboxylic acid o-tolylamide], the “effect on the glycemic lowering effect of Compound B111 in the oGTT (plasma glucose)” value ([1]; used in conjunction with Compound B111) is reported as “reversed the glycemic lowering effect of Compound B111”.
